Source: US10131652B2, “Pyrimidinyloxy benzene derivatives as herbicides” (E. I. DU PONT DE NEMOURS AND COMPANY, priority 2014, dated 2018)
Like-named read-outs stand apart in the source and are kept apart here.

Legend:
Test in all cases: Test D pre-/postemergence plant response
Type in all cases: in vivo
[1] = tested on: blackgrass (Alopecurus myosuroides); settings: Alopecurus myosuroides; for pest or weed control at 31 g/ha: 31 g ai/ha; for pest or weed control at 62 g/ha: 62 g ai/ha; for pest or weed control at 125 g/ha: 125 g ai/ha; for pest or weed control at 250 g/ha: 250 g ai/ha
In short: (§1)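 Visual injury scoring (0–100) at 13 to 15 days in greenhouse. Preemergence sprays on seeded loam/sand; postemergence sprays on 1–4 leaf plants.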

[2] = tested on: barnyardgrass (Echinochloa crus-galli); settings: Echinochloa crus-galli; for pest or weed control at 31 g/ha: 31 g ai/ha, scale 0 to 100 (0 no effect, 100 complete control); for pest or weed control at 62 g/ha: 62 g ai/ha; for pest or weed control at 125 g/ha: 125 g ai/ha; for pest or weed control at 250 g/ha: 250 g ai/ha
In short: as §1

[3] = tested on: waterhemp (common waterhemp, Amaranthus rudis); settings: Amaranthus tuberculatus; for pest or weed control at 31 g/ha: 31 g ai/ha; for pest or weed control at 62 g/ha: 62 g ai/ha; for pest or weed control at 125 g/ha: 125 g ai/ha; for pest or weed control at 250 g/ha: 250 g ai/ha
In short: as §1

[4] = tested on: Italian ryegrass (Lolium multiflorum); settings: Lolium multiflorum; for pest or weed control at 31 g/ha: 31 g ai/ha; for pest or weed control at 62 g/ha: 62 g ai/ha; for pest or weed control at 125 g/ha: 125 g ai/ha; for pest or weed control at 250 g/ha: 250 g ai/ha
In short: as §1

[5] = tested on: giant foxtail (Setaria faberii); settings: Setaria faberi; for pest or weed control at 31 g/ha: 31 g ai/ha; for pest or weed control at 62 g/ha: 62 g ai/ha; for pest or weed control at 125 g/ha: 125 g ai/ha; for pest or weed control at 250 g/ha: 250 g ai/ha
In short: as §1

[6] = tested on: galium (catchweed bedstraw, Galium aparine); settings: Galium; for pest or weed control at 31 g/ha: 31 g ai/ha; for pest or weed control at 62 g/ha: 62 g ai/ha; for pest or weed control at 125 g/ha: 125 g ai/ha; for pest or weed control at 250 g/ha: 250 g ai/ha
In short: as §1

[7] = tested on: corn (Zea mays); settings: Zea mays
In short: as §1

[8] = post-emergence, Postemergence, scale 0 to 100, 0 no effect, 100 complete control, read-out: Plant response rating, Blackgrass
[9] = pre-emergence, Preemergence, read-out: Plant response rating (scale 0 to 100), Blackgrass
[10] = pre-emergence, Preemergence, scale 0 to 100 (0 no effect, 100 complete control), read-out: Plant response rating, Blackgrass
[11] = post-emergence, Postemergence, scale 0 to 100, 0 no effect, 100 complete control, read-out: Plant response rating, Barnyardgrass
[12] = pre-emergence, Preemergence, read-out: Plant response rating (scale 0 to 100), Barnyardgrass
[13] = post-emergence, Postemergence, scale 0 to 100, 0 no effect, 100 complete control, read-out: Plant response rating, Waterhemp
[14] = pre-emergence, Preemergence, read-out: Plant response rating (scale 0 to 100), Waterhemp
[15] = pre-emergence, Preemergence, scale 0 to 100 (0 no effect, 100 complete control), read-out: Plant response rating, Waterhemp
[16] = post-emergence, Postemergence, scale 0 to 100, 0 no effect, 100 complete control, read-out: Plant response rating, Ryegrass, Italian
[17] = pre-emergence, Preemergence, read-out: Plant response rating (scale 0 to 100), Ryegrass, Italian
[18] = pre-emergence, Preemergence, scale 0 to 100 (0 no effect, 100 complete control), read-out: Plant response rating, Ryegrass, Italian
[19] = post-emergence, Postemergence, scale 0 to 100, 0 no effect, 100 complete control, read-out: Plant response rating, Foxtail, Giant
[20] = pre-emergence, Preemergence, read-out: Plant response rating (scale 0 to 100), Foxtail, Giant
[21] = pre-emergence, Preemergence, scale 0 to 100 (0 no effect, 100 complete control), read-out: Plant response rating, Foxtail, Giant
[22] = post-emergence, Postemergence, scale 0 to 100, 0 no effect, 100 complete control, read-out: Plant response rating, Galium
[23] = pre-emergence, Preemergence, read-out: Plant response rating (scale 0 to 100), Galium
[24] = pre-emergence, Preemergence, scale 0 to 100 (0 no effect, 100 complete control), read-out: Plant response rating, Galium

**Q.** What does the source list for `FC(F)c1cc(-c2ccccc2Oc2ncc(Br)cn2)no1` [Compound 62, 5-bromo-2-[2-[5-(difluoromethyl)-3-isoxazolyl]phenoxy]pyrimidine]?
**A.** pest or weed control at 31 g/ha ([1]; post-emergence, Postemergence, scale 0 to 100 (0 no effect, 100 complete control), read-out: Blackgrass plant response rating): 20%; pest or weed control at 62 g/ha [1, 8]: 25%; pest or weed control at 125 g/ha [1, 8]: 40%; pest or weed control at 250 g/ha [1, 8]: 60%; pest or weed control at 125 g/ha [1, 9]: 90%; pest or weed control at 250 g/ha [1, 9]: 90%; pest or weed control at 31 g/ha [1, 10]: 5%; pest or weed control at 62 g/ha [1, 10]: 90%; pest or weed control at 31 g/ha ([2]; post-emergence, Postemergence, read-out: Barnyardgrass plant response rating): 50%; pest or weed control at 62 g/ha [2, 11]: 35%; pest or weed control at 125 g/ha [2, 11]: 30%; pest or weed control at 250 g/ha [2, 11]: 95%; pest or weed control at 62 g/ha [2, 12]: 98%; pest or weed control at 125 g/ha [2, 12]: 100%; pest or weed control at 250 g/ha [2, 12]: 100%; pest or weed control at 31 g/ha ([2]; pre-emergence, Preemergence, read-out: Plant response rating, Barnyardgrass): 50%; pest or weed control at 31 g/ha ([3]; post-emergence, Postemergence, scale 0 to 100 (0 no effect, 100 complete control), read-out: Waterhemp plant response rating): 98%; pest or weed control at 62 g/ha [3, 13]: 98%; pest or weed control at 125 g/ha [3, 13]: 98%; pest or weed control at 250 g/ha [3, 13]: 100%; pest or weed control at 125 g/ha [3, 14]: 100%; pest or weed control at 250 g/ha [3, 14]: 100%; pest or weed control at 31 g/ha [3, 15]: 100%; pest or weed control at 62 g/ha [3, 15]: 100%; pest or weed control at 31 g/ha ([4]; post-emergence, Postemergence, scale 0 to 100 (0 no effect, 100 complete control), read-out: Ryegrass, Italian plant response rating): 5%; pest or weed control at 62 g/ha [4, 16]: 5%; pest or weed control at 125 g/ha [4, 16]: 30%; pest or weed control at 250 g/ha [4, 16]: 40%; pest or weed control at 125 g/ha [4, 17]: 90%; pest or weed control at 250 g/ha [4, 17]: 95%; pest or weed control at 31 g/ha [4, 18]: 40%; pest or weed control at 62 g/ha [4, 18]: 60%; pest or weed control at 31 g/ha ([5]; post-emergence, Postemergence, scale 0 to 100 (0 no effect, 100 complete control), read-out: Foxtail, Giant plant response rating): 25%; pest or weed control at 62 g/ha [5, 19]: 25%; pest or weed control at 125 g/ha [5, 19]: 20%; pest or weed control at 250 g/ha [5, 19]: 55%; pest or weed control at 125 g/ha [5, 20]: 100%; pest or weed control at 250 g/ha [5, 20]: 100%; pest or weed control at 31 g/ha [5, 21]: 95%; pest or weed control at 62 g/ha [5, 21]: 100%; pest or weed control at 31 g/ha ([6]; post-emergence, Postemergence, scale 0 to 100 (0 no effect, 100 complete control), read-out: Galium plant response rating): 85%; pest or weed control at 62 g/ha [6, 22]: 85%; pest or weed control at 125 g/ha [6, 22]: 100%; pest or weed control at 250 g/ha [6, 22]: 100%; pest or weed control at 125 g/ha [6, 23]: 100%; pest or weed control at 250 g/ha [6, 23]: 100%; pest or weed control at 31 g/ha [6, 24]: 100%; pest or weed control at 62 g/ha [6, 24]: 100%; plant injury at 31 g/ha ([7]; post-emergence, Postemergence, 31 g ai/ha, scale 0 to 100 (0 no effect, 100 complete control), read-out: Corn plant response rating): 10%; Corn plant response rating (crop injury, 0 = no effect, 100 = complete kill) at 62 g/ha ([7]; post-emergence, Postemergence, 62 g ai/ha, scale 0 to 100, 0 no effect, 100 complete control): 10%; Corn plant response rating (crop injury, 0 = no effect, 100 = complete kill) at 125 g/ha ([7]; post-emergence, Postemergence, 125 g ai/ha, scale 0 to 100, 0 no effect, 100 complete control): 15%; Corn plant response rating (crop injury, 0 = no effect, 100 = complete kill) at 250 g/ha ([7]; post-emergence, Postemergence, 250 g ai/ha, scale 0 to 100, 0 no effect, 100 complete control): 10%; plant injury at 125 g/ha ([7]; pre-emergence, Preemergence, 125 g ai/ha, read-out: Plant response rating (scale 0 to 100), Corn): 60%; plant injury at 250 g/ha ([7]; pre-emergence, Preemergence, 250 g ai/ha, read-out: Plant response rating (scale 0 to 100), Corn): 70%
